According to the NIST ThermoML archive (doi:10.1016/j.jct.2018.03.025):
Numbers after ± are expanded uncertainties.

What was measured:
[1] = wn = mass fraction of the nth substance listed; conditions: 298.2 K; 101.3 kPa; Liquid; Vibrating tube method; w1 = 0.85
[2] = refractive index (Na D-line) (dimensionless); wn = mass fraction of the nth substance listed; conditions: 298.2 K; 101.3 kPa; Liquid; Standard Abbe refractometry; w1 = 0.85
[3] = refractive index (Na D-line) (dimensionless); conditions: 298.2 K; 101.33 kPa; Liquid; Standard Abbe refractometry
[4] = 298.2 K; 101.33 kPa; Liquid; Vibrating tube method

mass density [1]	refractive index [2]	refractive index [3]	mass density [4]	Compound
1682.7 ± 1.1 kg/m3	1.432 ± 0.001			O=P(O)(O)O [phosphoric acid] + O
		1.383 ± 0.0011	882.26 ± 1.2 kg/m3	CCCOC(C)=O [propyl ethanoate]
		1.3325 ± 0.001		O [water]
		1.3991 ± 0.0011	872.02 ± 1.2 kg/m3	CCCCCOC(C)=O [pentyl ethanoate]
